Reference: US10035780B2, “Quinazoline scaffold based compounds, pharmaceutical compositions and methods of use thereof” (TECHNION RESEARCH & DEVELOPMENT FOUNDATION LTD., priority 2014, dated 2018)
“Also recorded” adds a separate entry of the source.

Experiments:
TSPO = TSPO (Homo sapiens (Human), UniProt P30536); type: binding; conditions: displacement of [3H]PK 11195 from TSPO
Method: Briefly, the assay utilizes radioactive standard ligand [^3H] PK 11195 (1-(2-chlorophenyl)-N-methyl-N-(1-methyl-propyl)-3 isoquinolinecarboxamide), and measures the ability of the compounds of the invention to displace standard ligand in binding to TSPO. Total radioactive binding was determined by measuring the radioactivity of the radioactive ligand-receptor complex, obtained in the reaction of radioactive standard with the TSPO. Radioactive standard and the examined compound were added to the TSPO and after some incubation time the radioactivity of the resulting ligand-receptor complexes was measured with the help of a […]. This radioactivity indicates the binding of the radioactive standard to TSPO. […] This can be expressed as the half maximal inhibitory concentration (IC50), which is a measure of the effectiveness of a compound in inhibiting biological or biochemical function, in this case inhibiting binding of standard radioactive ligand binding to the TSPO. A derivative of the IC50 is the Ki, which is the calculated binding affinity of the novel compound to the TSPO.
Binding to TSPO was evaluated using a [^3H]PK 11195 radio-assay, as described above.

U118MG cells [1] = test: Protection against cell death induced by glutamate in U118MG cell culture; type: cell-based, human
Method: (§1) Cell cultures of various human glial type cell lines (T98G, U87MG, A172, U118MG), as well as human neuronal type cell lines SH-SY 5Y and Be(2)-C were used to test the new compounds. In addition, the rat glioma cell line C6 was used. PC12 cells originating from rats were used as another cell line displaying neuronal characteristics. The applicants also have produced, by genetic manipulation, a modified rat C6 glial cell strain and a modified human U118MG glial type cell strain, both under-expressing the TSPO, which allows to study TSPO specific effects, including of the compounds of the invention, which can be done according to methods described previously (Weisinger et al. Biochemistry. 2004; 43:12315-21; Levin et al. 2005; Zeno et al., 2009).
The protective capabilities of the compounds of the invention and involvement of the TSPO were tested in cell culture, using cell lines of glial and neuronal type, cultured and testing according to standard methods (Kugler et al. 2008; Zeno et al. 2009; Dadon-Nachum et al. Stem Cell Rev. 2011; 7:664-71). Furthermore, primary cell cultures are also used (Banker, G. et al. Culturing Nerve Cells, 2nd Edition, The MIT Press (1998). Treatments included: (1) exposure to glutamate (35 mM), Abeta(1-42), NH4Cl, CoCl2, and nitric oxide (NO) donors, in order to mimic particular aspects of neurodegeneration; (2) treatment with the novel compounds and with traditional TSPO ligands as comparative treatment; and (3) TSPO knockdown by genetic manipulation.
(§2) Techniques and parameters assayed are summarized here: Total protein levels (Bradford. Anal Biochem. 1976; 72:248-54); TSPO ligand binding assays (Kugler et al. 2008; Levin et al. 2005; Danovich et al. Eur Neuropsychopharmacol. 2008; 18:24-33) cell death, including apoptosis and necrosis and related molecular biological processes (Soustiel et al. Neuropathol Appl Neurobiol. 2008; 34:412-23; Soustiel et al. Exp Neurol. 2008; 214:201-8; Zeno et al. 2009); mitochondrial transmembrane potential collapse (Chelli et al. Biochem Pharmacol. 2004; 68:125-34; Kugler et al. 2008; Zeno et al., 2009; Shargorodsky et al. Apoptosis. 2012; 17:647-65), reactive oxygen species (ROS) generation as a measure of oxidative stress (Veenman et al. 2008; Zeno et al. 2009); TSPO knockdown (Levin et al. 2005; Zeno et al. 2009); expression levels of mitochondrial TSPO and associated proteins (Veenman et al. 2002; Levin et al. 2005; Veenman et al. 2008); gene expression with RT-PCR and microarray analysis (Bode et al. 2012; Veenman et al. 2012). Parameters of inflammation, immune response, migration, and the cell cycle are also tested. All these approaches can also be applied for quality control of the compounds.
The compounds of the invention protect against cell death induced by glutamate in cell culture of U118MG cells of astrocytic origin (FIGS. 1, 2, 3 and 8) or SH SY 6Y cells of neuronal origin (FIG. 4). […] In the control group, 35 mM of glutamate killed ˜60% of the cells.
The experimental setup is explained using FIG. 8B as an example: • 1. Control: Cell death levels are taken as 0% • 2. Glu: Cell death levels induced by glutamate are over 50% • 3. […] Glu+Cpd 5: When Cpd 5 is given as a treatment to counteract cell death induced by glutamate, increasing concentrations of Cpd 5 reduce cell death levels from over 50% to less than 5%.

Stability on storage = type: physicochemical; conditions: several months of storage
PC12 cells = test: Differentiation of PC12 cells to neuron like cells, with glutamate; type: cell-based, rat; conditions: 5 days
Method: as §1
Briefly, PC-12 cells were exposed to Cpd 1, in combination with glutamate, basically as described for the cell cultures of Example 1, and remained under that condition for 5 days.

U118MG cells [2] = test: Collapse of the mitochondrial membrane potential (ΔΨm) induced by glutamate; type: cell-based, human; conditions: glutamate exposed cells
Excerpt: as §2
Compound 1 is very effective at a concentration of 25 μM in this model (in order to achieve the same effect with the classical TSPO ligand PK 11195 a concentration of 50 μM has to be applied (data not shown).

TSPO, sequence (P30536 whole entry): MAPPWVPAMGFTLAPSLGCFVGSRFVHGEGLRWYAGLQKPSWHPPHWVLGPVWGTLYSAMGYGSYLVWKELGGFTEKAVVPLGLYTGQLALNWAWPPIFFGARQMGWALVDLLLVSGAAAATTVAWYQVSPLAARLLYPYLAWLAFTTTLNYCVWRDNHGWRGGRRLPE

Structure (SMILES): CCN(C)C(=O)Oc1nc(-c2ccccc2)nc2ccccc12 [Compound 1, 2-phenylquinazolin-4-yl ethyl(methyl)carbamate]
- Ki (TSPO): ~60 nM
- protection against cell death induced by glutamate (U118MG cells [1]; U118MG cells, 35 mM glutamate, compound 1-100 μM): significantly protects; also recorded: protect better and more consistently; also recorded: significantly reduces glutamate-induced cell death levels
- Protection against glutamate-induced cell death (U118MG cells [1]; cell culture, grade in words): Excellent
- lethal effect of compound by itself (U118MG cells [1]; compound alone, no glutamate): only very little lethal effect by itself
- stability on storage (Stability on storage): stable over several months of storage
- differentiation of PC12 cells toward neuronal type cells (PC12 cells): able to transform PC-12 cells in cell culture to neuron like cells; also recorded: can induce differentiation
- concentration very effective in preventing ΔΨm collapse (U118MG cells [2]): 25 µM
- prevention of ΔΨm collapse induced by glutamate (U118MG cells [2]): prevents collapse
- prevention of ΔΨm collapse induced by glutamate (U118MG cells [2]; listed as Cpd 1): prevented
